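Tested at 5 concentrations; 48 h exposure; 96-well plates; endpoints linearly interpolated, else capped at highest concentration. Here, GI50 denotes the concentration required for 50% inhibition of growth.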 The source made the active and inactive calls. Rule as the data show it: active = GI50 up to about 1.1 µM and inactive = higher.

This is an account of results in ChEMBL document CHEMBL1201862, “PubChem BioAssay data set” (2004).

Test systems include NCI-H522; T47D; LOX IMVI; HT-29; SNB-75; DU-145; HOP-92; OVCAR-4; CCRF-CEM; MOLT-4; ACHN; A498; NCI-H23; SN12C; NCI-H226; SF-295; HCC 2998; A549; M14; IGROV-1.
Holding throughout (assay): NCI-60 cell line screen, 48 h

As to `Cc1ccc(S(=O)(=O)NCCSS(=O)(=O)c2ccc(C)cc2)cc1`, the GI50 with NCI-H522 was 18.2 µM (inactive); in the experiment with T47D, 27.7 µM (inactive); with LOX IMVI, 33.4 µM (inactive); in the experiment on HT-29, 22.6 µM (inactive); in the experiment on SNB-75 it was 30.4 µM (inactive); in the experiment with DU-145, 42.6 µM (inactive). The GI50 is > 100 µM (inactive) in the experiment with HOP-92; > 100 µM (inactive) in the experiment with OVCAR-4; 24.3 µM (inactive) in the experiment on CCRF-CEM; 26.8 µM (inactive) in the experiment on MOLT-4; 32.8 µM (inactive) in the experiment with ACHN; 11.3 µM (inactive) with A498. The GI50 is 57.4 µM (inactive) in the experiment with NCI-H23; 29.7 µM (inactive) in the experiment with SN12C; 24.3 µM (inactive) in the experiment on NCI-H226; 35.6 µM (inactive) in the experiment with SF-295; 62.5 µM (inactive) in the experiment with HCC 2998; 25.9 µM (inactive) in the experiment on A549.
As for `COC1(OC)c2no[n+]([O-])c2CCC1O` (centres undefined), the GI50 in the experiment with M14, with NCI-H522, in the experiment with T47D, in the experiment with LOX IMVI, with HT-29 and in the experiment on DU-145 was > 100 µM (inactive) each time. Further, the GI50 in the experiment on HOP-92 is 0.0255 µM (active); with OVCAR-4 it was > 100 µM (inactive); in the experiment with CCRF-CEM it was > 100 µM (inactive); in the experiment on MOLT-4, > 100 µM (inactive); with IGROV-1, > 100 µM (inactive); in the experiment with ACHN it was > 100 µM (inactive). The GI50 in the experiment on A498, with NCI-H23, in the experiment with SN12C, with NCI-H226, in the experiment with SF-295 and in the experiment with HCC 2998 was > 100 µM (inactive) throughout. Also, the GI50 in the experiment on A549 was > 100 µM (inactive).
For `COc1ccc2c(O)c3[n+](cc2c1OC)CCc1cc2c(cc1-3)OCO2`, the GI50 with M14 was > 100 µM (inactive); with NCI-H522 it was 17 µM (inactive); in the experiment on T47D, 88.3 µM (inactive); with LOX IMVI, 69 µM (inactive); in the experiment with HT-29, 63.2 µM (inactive); in the experiment with SNB-75, > 100 µM (inactive). Moreover, the GI50 in the experiment with DU-145 is > 100 µM (inactive); in the experiment with HOP-92, > 100 µM (inactive); in the experiment on OVCAR-4, > 100 µM (inactive); in the experiment with CCRF-CEM, 52.8 µM (inactive); with MOLT-4, > 100 µM (inactive); with IGROV-1, 91.8 µM (inactive). Besides, the GI50 was > 100 µM (inactive) in the experiment on ACHN; 61.5 µM (inactive) in the experiment on A498; > 100 µM (inactive) in the experiment on NCI-H23; > 100 µM (inactive) with SN12C; > 100 µM (inactive) in the experiment with NCI-H226; 42.9 µM (inactive) in the experiment on SF-295. Further, the GI50 in the experiment with HCC 2998 and in the experiment on A549 was > 100 µM (inactive) throughout.
`O=C1CCCC/C1=C1/SC(=N/c2ccccc2)/C(=N\c2ccccc2)N1c1ccccc1`: the GI50 in the experiment with M14 is > 100 µM (inactive); in the experiment on NCI-H522, > 100 µM (inactive); in the experiment with T47D, > 100 µM (inactive); in the experiment on HT-29, > 100 µM (inactive); in the experiment on SNB-75, 69.5 µM (inactive); in the experiment on DU-145, 56.8 µM (inactive). In addition, the GI50 is > 100 µM (inactive) in the experiment with HOP-92; > 100 µM (inactive) in the experiment on CCRF-CEM; 34.2 µM (inactive) in the experiment with MOLT-4; > 100 µM (inactive) in the experiment on IGROV-1; > 100 µM (inactive) in the experiment with A498; > 100 µM (inactive) in the experiment on NCI-H23. The GI50 with SN12C was > 100 µM (inactive); in the experiment on NCI-H226 it was 23.4 µM (inactive); with SF-295, 86.3 µM (inactive); with HCC 2998, > 100 µM (inactive).
As for `C=CCOC1OC(CS(=O)(=O)O)C(O)C(O)C1O` (centres undefined), the GI50 with M14, with T47D, with LOX IMVI, in the experiment with HT-29, in the experiment on SNB-75 and in the experiment with DU-145 was > 100 µM (inactive) in each case. The GI50 with HOP-92 was > 100 µM (inactive); in the experiment with OVCAR-4, > 100 µM (inactive); in the experiment on CCRF-CEM, > 10 µM (inactive); with MOLT-4, > 100 µM (inactive); in the experiment on IGROV-1, > 100 µM (inactive); in the experiment on A498, > 100 µM (inactive). Besides, the GI50 with NCI-H23, with SN12C, in the experiment with NCI-H226, in the experiment with SF-295 and with HCC 2998 was > 100 µM (inactive) each time.
`COc1ccc(/C=C2\CCC/C(=C\c3ccc(O)c(CN4CCCCC4)c3)C2=O)cc1`: the GI50 in the experiment on M14 is 4.06 µM (inactive); in the experiment with NCI-H522, 2.96 µM (inactive); with T47D it was 19.3 µM (inactive); in the experiment on LOX IMVI it was 2.82 µM (inactive); in the experiment with HT-29 it was 2.3 µM (inactive); in the experiment on SNB-75 it was 12.6 µM (inactive). In addition, the GI50 with DU-145 is 9.02 µM (inactive); in the experiment with HOP-92, 9.79 µM (inactive); in the experiment on OVCAR-4, 22.2 µM (inactive); with CCRF-CEM it was 4.02 µM (inactive); in the experiment on MOLT-4, 2.59 µM (inactive); in the experiment on IGROV-1, 4.7 µM (inactive). The GI50 was 10.3 µM (inactive) with ACHN; 9.57 µM (inactive) with A498; 4.93 µM (inactive) in the experiment on NCI-H23; 4.76 µM (inactive) with SN12C; 6.67 µM (inactive) in the experiment with NCI-H226; 6.95 µM (inactive) in the experiment on SF-295. The values for the GI50 in the experiment with HCC 2998 and in the experiment with A549 were 5.45 µM (inactive) and 8 µM (inactive), respectively.
As to `CS(C)(=O)=Nn1c(=O)n2n(c1=O)C1c3ccccc3C2c2ccccc21`, the GI50 in the experiment on M14, in the experiment with NCI-H522, in the experiment on T47D, in the experiment on LOX IMVI, with HT-29 and in the experiment with DU-145 was > 100 µM (inactive) each time. Moreover, the GI50 in the experiment with HOP-92, in the experiment with CCRF-CEM, in the experiment on MOLT-4, in the experiment with IGROV-1, in the experiment on ACHN and in the experiment on A498 was > 100 µM (inactive) throughout. Moreover, the GI50 in the experiment with NCI-H23, in the experiment with SF-295 and in the experiment on A549 was > 100 µM (inactive) each time.
For the molecule `C1CSCCSCCSCCSC1`, the GI50 with M14, in the experiment with NCI-H522, with T47D, in the experiment on LOX IMVI, with HT-29 and in the experiment on SNB-75 was > 100 µM (inactive) each time. Besides, the GI50 in the experiment on DU-145, in the experiment with HOP-92, with OVCAR-4, in the experiment on MOLT-4, in the experiment on IGROV-1 and in the experiment on ACHN was > 100 µM (inactive) each time. Moreover, the GI50 with A498, in the experiment with NCI-H23, with SN12C, with NCI-H226, with SF-295 and in the experiment on HCC 2998 was > 100 µM (inactive) throughout. Besides, the GI50 in the experiment on A549 was > 100 µM (inactive).
